Four molecules from US20080118990A1, “Assay For Lipoproteins Using Lumiphore K-37” (Science and Technology Facilities Council, priority 2004, published 2008) can be followed below.

Assay [1] addresses T1, Human Serum Albumin (HSA) (Homo sapiens, UniProt P02768). Put plainly: K-37 fluorescence with HSA with and without octanoate, blocking of HSA (Example 2).
For assay [2], the system named is LDL. The experiment in a line: K-37 fluorescence in LDL with and without octanoate (Example 2). The class given is binding. Here is the method: The dye K-37 was added at a concentration of 0.5 mM to LDL at a total lipid concentration of 5 mM, in the presence and absence of 50 mg/ml HSA. Measurements were made with and without the addition of 0.1 M sodium octanoate, which acted as a ligand binding inhibitor.

Assay [3] has as its target T1, Human Serum Albumin (HSA). Put plainly: Nile Red fluorescence with HSA with and without octanoate (Example 3). Format: binding.
A further assay relates to HDL. The experiment in a line: Nile Red fluorescence in HDL compared with VLDL and LDL at different excitation wavelengths (Example 6). On the set-up: species or system human. How it is done:
Further optimisation of the assay according to the invention Further tests were performed on human serum samples to investigate optimum excitation wavelengths for inducing fluorescence indicative of HDL levels according to the method of the invention.
The inventors tested a number of wavelengths and have established that, when using Nile Red, that an excitation wavelength of 600 nm and an emission wavelength of 620 nm gives optimal results (see FIG. 15). The inventors were surprised that this excitation wavelength was optimal because it is to the very long wavelength edge of the spectrum.
For certain samples the inventors observed a noisier plot with an excitation wavelength of 460 nm and an emission wavelength of 620 nm (see FIG. 16).
The inventors believe that Nile Red is about 5 times more fluorescent in HDL than VLDL and LDL when excited at 600 nm as opposed to excitation at 460 nm where it is only about 2 times more fluorescent. This gives a better signal to noise when subtracting from the standard curve of LDL plus VLDL.

Assay [4] concerns LDL. Put plainly: Nile Red fluorescence in LDL with and without octanoate (Example 3). The class given is binding.
The nature of assay [5]: Quenching of Nile Red residual fluorescence in solution (Example 6). Format: physicochemical. An excerpt: (§1) This lead the inventors to realise that the HDL/Nile red assay may be improved further by using an additional blocker. They tried agents that block the drug binding domain of HSA. […] The benzoic acid has the added bonus of quenching the Nile Red residual fluorescence in solution by about 20%.

Assay [6] has as its target drug binding domain of HSA (Homo sapiens, UniProt P02768). The experiment in a line: Displacement of Nile Red from HSA by agents that block the drug binding domain (Example 6). The note with it: agent at about 5 mM, without affecting the lipoprotein fluorescence.
Description: as §1

The structures appear in SMILES notation.

T1 sequence (P02768 25-609): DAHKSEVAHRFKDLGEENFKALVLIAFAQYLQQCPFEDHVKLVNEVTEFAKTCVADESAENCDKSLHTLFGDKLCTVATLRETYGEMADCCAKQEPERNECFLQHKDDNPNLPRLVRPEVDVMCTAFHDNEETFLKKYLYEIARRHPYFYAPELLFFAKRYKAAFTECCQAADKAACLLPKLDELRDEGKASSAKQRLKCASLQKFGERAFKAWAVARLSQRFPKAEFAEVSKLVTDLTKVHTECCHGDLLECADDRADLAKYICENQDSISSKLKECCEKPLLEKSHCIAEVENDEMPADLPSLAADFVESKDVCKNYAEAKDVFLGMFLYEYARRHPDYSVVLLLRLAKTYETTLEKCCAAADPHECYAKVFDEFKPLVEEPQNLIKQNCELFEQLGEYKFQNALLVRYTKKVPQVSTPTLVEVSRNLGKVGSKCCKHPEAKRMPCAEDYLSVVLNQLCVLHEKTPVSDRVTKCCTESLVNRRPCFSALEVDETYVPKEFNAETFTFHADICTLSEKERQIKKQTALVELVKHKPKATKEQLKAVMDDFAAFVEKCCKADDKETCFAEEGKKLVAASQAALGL
Chain of drug binding domain of HSA (P02768 25-609): as above

`CN(C)c1ccc(/C=C/C(=O)c2ccc(S(=O)(=O)C(F)F)cc2)cc1` [K-37, 4-dimethylamino-4′-difluoromethyl-sulphonyl-benzylidene-acetophenone]: the “Fluorescence Intensity” value in assay [1] (0.5 mM K-37 plus 50 mg/ml HSA + 0.1 M sodium octanoate) is 3600 units; in assay [1] (0.5 mM K-37 plus 50 mg/ml HSA, no octanoate), 79300 units; in the assay with LDL [2] (0.5 mM K-37 plus 5 mM LDL + 0.1 M sodium octanoate) it was 209700 units; in the assay with LDL [2] (0.5 mM K-37 plus 5 mM LDL, no octanoate), 213500 units.

With `CCN(CC)c1ccc2nc3c4ccccc4c(=O)cc-3oc2c1` [Nile Red], the “Fluorescence Intensity” value in assay [3] (0.5 mM Nile Red plus 50 mg/ml HSA + 50 mM octanoate) is 9.118 units; in assay [3] (0.5 mM Nile Red plus 50 mg/ml HSA, no octanoate) it was 58.905 units; with LDL [4] (0.5 mM Nile Red plus 5 mM LDL + 50 mM octanoate), 183.786 units; in the assay with LDL [4] (0.5 mM Nile Red plus 5 mM LDL, no octanoate), 187.532 units. Further, the “times more fluorescent in HDL than VLDL and LDL” value with HDL (excitation at 460 nm) is listed as “about 2 times”; in the assay on HDL (excited at 600 nm), “about 5 times”.

Regarding `O=C(O)c1ccccc1` [benzoic acid], the “quenching of Nile Red residual fluorescence in solution” value in assay [5] is “about 20%”. Further, in assay [6], the “displacement of Nile Red from HSA” value is “worked to displace the Nile Red from HSA”.

As for `CCCCCCCC(=O)[O-].[Na+]` [octanoate, sodium octanoate], the “effect of octanoate on K-37 fluorescence in LDL” value in the assay on LDL [2] (0.1 M sodium octanoate, 5 mM LDL, 0.5 mM K-37) is on record as “little effect”. In addition, the “effect of octanoate on Nile Red fluorescence in LDL” value in the assay on LDL [4] (50 mM octanoate, 5 mM LDL, 0.5 mM Nile Red) is given as “little effect”.
